According to patent US9623015B2, “Combination of an anti-cancer agent such as a tyrosinekinase inhibitor and a STAT5 antagonist, preferably a thiazolidinedione, for eliminating hematologic cancer stem cells in vivo and for preventing hematologic cancer relapse” (Commissariat à L'Energie Atomique et aux Energies …, priority 2012, dated 2017):
Entries after “also recorded” stand apart in the source; their conditions may differ.

What was measured:
[1] = system: CD34+ CP-CML cells; assay: Liquid culture of CD34+ CP-CML cells (fold expansion, viable cells); format: cell-based, human; design: viab (%): concentration or dose not given beside the values; details: for viab (%) / Fold exp: serum-free medium without cytokines; for Fold exp, mean: mean of 7 patients
Protocol: Cell culture and proliferation assays. K562 cells (2×10^5) were cultured in 96-well plates, in complete Dulbecco's Modified Eagle medium supplemented with 10% fetal calf serum (Gibco®, Life technologies) alone or with variable concentrations of pioglitazone or troglitazone. […] Eight replicates were used for each set of conditions and results were obtained after three independents experiments. CD34^+ cells from patients in CP-CML at diagnosis or umbilical cord blood were immunoselected (CD34 microBead Kit, Miltenyi Biotec) according to the manufacturer's instructions. […] Ph1^+-CD34^+ cells were cultured in serum free medium (SFM) StemSpan (StemCell Technologies) without growth factors.
Flow cytometry. […] For all experiment, cell viability was assessed using SYTOX® Blue dead cell stain (Invitrogen Life Technologies).

[2] = system: CP-CML CD34+ cells
Protocol: CSFE assays. Fresh CD34^+-enriched cells were stained with 2 μM of 5-(and 6-) carboxyfluorescein diacetate succinimidyl diester (CFSE, Invitrogen). […] Cells were harvested at variable time points as indicated, collected in BD Trucount™ tubes for absolute count (BD Biosciences) and labeled with anti-CD45 and anti-CD34. Then, cells were diluted in 1 mL of phosphate-buffered saline (PBS, Invitrogen Life Technologies) containing 2% fetal calf serum (PAA) and stained for viability. All analyses were carried out on a BD FACS Canto2 Flow Cytometer.

[3] = system: CP-CML LTC-ICs; assay: LTC-IC assay with limiting dilution analysis; format: cell-based, human
Protocol: Colony Forming Cell (CFC) and Long Term Culture—Initiating Cell (LTC-IC) assays. […] Cells were scored and collected after 14 day incubation at 37° C. and 5% CO2. After scoring, colonies were washed with PBS and kept frozen in RNAlater® (Invitrogen) for subsequent analysis. […] After five weeks with weekly change of one half medium volume, all cells were transferred in alpha-MEM based methylcellulose medium (GF H4434, Stemcell technologies) to determine the total clonogenic cell content of each LTC. LTC-IC frequencies were determined using the L-Calc software (Stemcell technologies).

[4] = system: STAT5; assay: STAT5 phosphorylation (flow cytometry) and STAT5 protein (Western blot) in K562 cells; format: cell-based; details: Imatinib 1 μM
Protocol: Intracellular STAT5 phosphorylation assays. […] Cells were fixed and permeabilized using Cytofix/Cytoperm kit (BD Pharmingen) and stained with Alexa Fluor® 488-anti-phospho-STAT5 mAb (BD Phosflow) or Alexa Fluor® 488-isotype-matched control to obtain fluorescence minus comparative in each experiment. Analysis was carried on a minimal number of 50,000 events in the viable cell gate. […] (untreated cells p-STAT5 MFI-non treated cells isotype-control MFI)-(drug treated cells p-STAT5 MR-drug treated cells isotype-control MFI). Western blot analysis. For STAT5 protein analysis, K562 cells (2.5×10^5) were lysed in RIPA lysis buffer on ice. […] Proteins were transferred to Hybond N+ filters (Amersham). Membranes were probed with the following antibodies: STAT5 (sc-1656), actin (sc-8432), and goat anti-mouse IgG-HRP (sc-2005) (Santa Cruz Biotechnology Inc.). Antibody binding was detected by the enhanced chemiluminescence ECL+ (Amersham).

[5] = system: STAT5B mRNA; assay: STAT5B RT-qPCR in CP-CML cells; format: cell-based, human; details: CP-CML cells after 10 days of liquid culture without cytokines; normalized to GAPDH
Text: RNA extraction and RT-qPCR analysis.

[6] = Imatinib plasma levels in three CML patients; format: in vivo, human
[7] = system: CML patients; assay: BCR-ABL/ABL RT-qPCR follow-up of three CML patients given pioglitazone on imatinib; format: in vivo, human
[8] = system: CML patients; assay: ACTIM clinical trial: molecular response and safety; format: in vivo, human
Text: BCR-ABL transcript level was monitored every 3 months during the study period. Primary objective was the proportion of patients achieving a confirmed undetectable level of BCR-ABL transcript. Secondary objectives included cumulative incidence of CMR4.5 and safety.

[9] = system: human cord blood CD34+ cells expressing BCR-ABL; assay: CFC assay after lentivector-mediated expression of BCR-ABL in cord blood CD34+ cells; format: cell-based; details: BCR-ABL vs eGFP lentivector; drug added for 48 h prior; p<0.002
Protocol: For CFC assays, CD34^+ cells were suspended (1×10^4) in 3 ml of alpha-MEM based methylcellulose medium (GF H4434, Stemcell Technologies). Cells were scored and collected after 14 day incubation at 37° C. and 5% CO2.
An SIV GAE-SSFV-eGFP vector was used as a control.
Cells were suspended (1×10^6/ml) in StemSpan (StemCell Technologies, France) supplemented with protamine sulfate (4 μg/ml), SCF (100 ng/ml), Flt-3-L (100 ng/ml), IL-3 (20 ng/ml), and IL-6 (20 ng/ml), in a 96-well plate coated with RetroNectin® (Takara Shuzo Co., Japan). Cell suspensions were incubated for 16 hours. Lentiviral vectors were then added and cell suspensions incubated for 12 hours. Cells were washed twice before being seeded.

[10] = ACTIM companion study: imatinib trough levels; format: in vivo, human; details: p=ns
[11] = pioglitazone added to imatinib, 24 evaluable patients

Compound: Cc1ccc(NC(=O)c2ccc(CN3CCN(C)CC3)cc2)cc1Nc1nccc(-c2cccnc2)n1 [Imatinib]
- viab (%) ([1]; Patient 1, D 3 in culture): 0.1%
- viab (%) ([1]; Patient 1, D 7 in culture): 0.10%
- viab (%) ([1]; Patient 2, D 3 in culture): 31.00%
- viab (%) ([1]; Patient 2, D 7 in culture): 29.70%
- viab (%) ([1]; Patient 3, D 3 in culture): 4.10%
- viab (%) ([1]; Patient 3, D 7 in culture): 5.90%
- viab (%) ([1]; Patient 4, D 3 in culture): 86.00%
- viab (%) ([1]; Patient 4, D 7 in culture): 54.00%
- viab (%) ([1]; Patient 5, D 3 in culture): 54.5%
- viab (%) ([1]; Patient 5, D 7 in culture): 56.00%
- viab (%) ([1]; Patient 6, D 3 in culture): 85.00%
- viab (%) ([1]; Patient 6, D 7 in culture): 73.00%
- viab (%) ([1]; Patient 7, D 3 in culture): 84.00%
- viab (%) ([1]; Patient 7, D 7 in culture): 66.00%
- viable CD34+ cells that never divided or had divided only once ([2]; Patient 4, vs. 5% for the untreated control): 34%
- effect on cell cycle status / quiescence ([2]; liquid culture without cytokines): induced a selection of insensitive quiescent CML cells
- reduction of the frequency of CP-CML LTC-ICs (in words) ([3]; p=0.067 and p=0.02): unable to reduce significantly
- action on STAT5 phosphorylation [4]: acts rapidly (minutes) by preventing STAT5 phosphorylation
- decrease of STAT5B mRNA levels [5]: 1.5 fold
- plasma levels ([6]; Patient 1, imatinib 300-400 mg/day): 924 ng/mL
- plasma levels ([6]; Patient 2, imatinib 300-400 mg/day): 310 ng/mL
- plasma levels ([6]; Patient 3, imatinib 400 mg/day): 790 ng/mL

Compound: CCc1ccc(CCOc2ccc(CC3SC(=O)NC3=O)cc2)nc1 (centres unmarked) [pioglitazone]
- duration of CMR(Slog) ([7]; Patient 1, pioglitazone 30 mg/day added after 5 years of imatinib therapy): 56 months
- duration of CMR(Slog) ([7]; Patient 2, pioglitazone 30 mg/day added after 6 year of imatinib therapy, then withdrew): 12 months
- time without molecular relapse after stopping imatinib treatment ([7]; Patient 3): 6 months
- time to CMR(Slog) ([7]; Patient 3, pioglitazone 45 mg/day added to imatinib): 6 months
- duration of CMR(Slog) ([7]; Patient 3, pioglitazone 45 mg/day added to imatinib 400 mg/day): 28 months
- Fold exp ([1]; Patient 1, D 3 in culture): 0.75 fold
- viab (%) ([1]; Patient 1, D 3 in culture): 19.00%
- Fold exp ([1]; Patient 1, D 7 in culture): 0.39 fold
- viab (%) ([1]; Patient 1, D 7 in culture): 9.00%
- Fold exp ([1]; Patient 2, D 3 in culture): 1.25 fold
- viab (%) ([1]; Patient 2, D 3 in culture): 47.00%
- Fold exp ([1]; Patient 2, D 7 in culture): 2.96 fold
- viab (%) ([1]; Patient 2, D 7 in culture): 71.00%
- Fold exp ([1]; Patient 3, D 3 in culture): 0.27 fold
- viab (%) ([1]; Patient 3, D 3 in culture): 9.90%
- Fold exp ([1]; Patient 3, D 7 in culture): 1.69 fold
- viab (%) ([1]; Patient 3, D 7 in culture): 17.90%
- Fold exp ([1]; Patient 4, D 3 in culture): 2.02 fold
- viab (%) ([1]; Patient 4, D 3 in culture): 93.00%
- Fold exp ([1]; Patient 4, D 7 in culture): 1.67 fold
- viab (%) ([1]; Patient 4, D 7 in culture): 54.00%
- Fold exp ([1]; Patient 5, D 3 in culture): 1.32 fold
- viab (%) ([1]; Patient 5, D 3 in culture): 73.00%
- Fold exp ([1]; Patient 5, D 7 in culture): 0.93 fold
- viab (%) ([1]; Patient 5, D 7 in culture): 86.00%
- Fold exp ([1]; Patient 6, D 3 in culture): 1.69 fold
- viab (%) ([1]; Patient 6, D 3 in culture): 88.00%
- Fold exp ([1]; Patient 6, D 7 in culture): 1.87 fold
- viab (%) ([1]; Patient 6, D 7 in culture): 85.00%
- Fold exp ([1]; Patient 7, D 3 in culture): 0.86 fold
- viab (%) ([1]; Patient 7, D 3 in culture): 84.00%
- Fold exp ([1]; Patient 7, D 7 in culture): 1.48 fold
- viab (%) ([1]; Patient 7, D 7 in culture): 33.00%
- Fold exp, mean ([1]; D 3 in culture): 1.17 fold
- Fold exp, mean ([1]; D 7 in culture): 1.54 fold
- patients with a confirmed undetectable level of BCR-ABL transcript ([8]; pioglitazone 30 mg/d 2 months then 45 mg/d added to imatinib, 24 evaluable patients): 14%
- discontinuation due to adverse events [8, 11]: No patient discontinued due to adverse events
- main adverse events [8, 11]: weight gain and worsening fluid retention in 3 patients
- one year cumulative incidence of CMR4.5 ([8]; pioglitazone added to imatinib, control group 27% (p=0.02)): 57%
- degree of reduction in colony forming cells (CFC), greater when BCR-ABL was expressed [9]: 1.9 fold
- reduction of the frequency of CP-CML LTC-ICs ([3]; limiting dilution analysis): 2.4 fold
- interaction between imatinib and pioglitazone in term of through level [10]: No interaction; also recorded: lack of interaction
- decrease of STAT5B mRNA levels [5]: 8.5 fold
